38 compounds from ChEMBL document CHEMBL4190174 (2016) can be followed below.

Activity calls are given as the source filed them. No cut-off for these calls is given here. Where only a bound is given, the exact number is not on record here.

Assay [1] relates to SNB-19. Kind of assay: Growth inhibition of MGMT-transfected human SNB19 cells after 7 days by MTT assay. Format: functional. The settings on record: SNB-19, 168 h. (In general: Formazan colour is commonly taken as a measure of viable cells.)
In assay [2] the test system is SNB-19. Description: Growth inhibition of empty vector transfected human SNB19 cells after 7 days by MTT assay. The class given is functional. The settings on record: SNB-19, 168 h.
Assay [3] relates to U373 MG. Kind of assay: Growth inhibition of MGMT-transfected human U373 cells after 7 days by MTT assay. The class given is functional, U-373MG ATCC. Particulars: 168 h.
Assay [4] has as its system U373 MG. Description: Growth inhibition of empty vector transfected human U373 cells after 7 days by MTT assay. The class given is functional, U-373MG ATCC. Particulars: 168 h.
Assay [5] deals with DLD-1. Description: Growth inhibition of human DLD1 cells harboring hMSH6 mutation. Format: functional.
In assay [6] the test system is U373 MG. Description: Ratio of GI50 for MGMT-transfected human U373 cells to GI50 for empty vector transfected human U373 cells. Format: functional, U-373MG ATCC.
Assay [7] can be described thus: Growth inhibition of human U373VR cells by MTT assay. Format: functional.
Assay [8] deals with SNB-19. Kind of assay: Ratio of GI50 for MGMT-transfected human SNB19 cells to GI50 for empty vector transfected human SNB19 cells. Format: functional.
For assay [9], the system named is DNA. Kind of assay: Induction of Escherichia coli pBR322 DNA interstrand cross linking using 5'-end labeled [gamma32P]ATP primer at <=1000 uM after 2 to 40 hrs by PAGE based autoradiographic method. Format: nucleic-acid assay.
In assay [10] the test system is HCT-116. Description: Growth inhibition of human HCT116 cells harboring hMLH1 mutation. Format: functional.
Assay [11] in a line: Growth inhibition of human SNB19VR cells by MTT assay. Format: functional.
Assay [12] has as its system Panel NCI-60 (60 carcinoma cell lines). Kind of assay: Growth inhibition of human NCI60 cells after 48 hrs by MTT assay. Format: functional.
Assay [13] deals with Escherichia coli. Kind of assay: Induction of Escherichia coli linearized pBR322 DNA alkylation at clusters of 3/5 guanines using 5'-end labeled [gamma32P]ATP primer after 2 hrs by PAGE based taq polymerase stop assay.
For assay [14], the system named is dsDNA. Description: Induction of double stranded DNA break in MGMT-transfected human U373 cells assessed as increase in gamma-H2AX level at 100 uM after 72 hrs by flow cytometry relative to control. Format: cell-based.
Assay [15] deals with DNA. Description: Induction of Escherichia coli pBR322 DNA cleavage assessed as covalent modification at N-7 guanine at 10 to 1000 uM after 2 hrs by PAGE based autoradiographic method. The class given is nucleic-acid assay.
Assay [16] relates to dsDNA. Description: Induction of double stranded DNA break in MGMT-transfected human U373 cells assessed as increase in gamma-H2AX level at 100 uM after 72 hrs by flow cytometry. The class given is cell-based.
Assay [17] relates to SNB-19. Kind of assay: Potency index, ratio of temozolomide GI50 to compound GI50 for MGMT-transfected human SNB19 cells. The class given is functional.
The test system of assay [18] is SNB-19. Description: Potency index, ratio of temozolomide GI50 to compound GI50 for empty vector transfected human SNB19 cells. The class given is functional.
Assay [19] relates to U373 MG. Kind of assay: Potency index, ratio of temozolomide GI50 to compound GI50 for MGMT-transfected human U373 cells. The class given is functional, U-373MG ATCC.
The test system of assay [20] is U373 MG. Description: Potency index, ratio of temozolomide GI50 to compound GI50 for empty vector transfected human U373 cells. Format: functional, U-373MG ATCC.

By GI50 is commonly meant the concentration that inhibits growth by half. A lower GI50 goes with greater sensitivity of the cells. Turning to `CCOC(=O)CCn1nnc2c(C(N)=O)ncn2c1=O`, the GI50 in [1] was found to be 255 µM; in assay [2] it was 367 µM; in assay [3] it was 143 µM; in [4] it was 129 µM.

On to `NC(=O)c1ncn2c(=O)n(CC(=O)N3CCOCC3)nnc12`, for which the GI50 turned out to be 102 µM in assay [1], 62.3 µM in [2], 132 µM in assay [3] and 243 µM in assay [4].

`CN(C)C(=O)Cn1nnc2c(C(N)=O)ncn2c1=O`: the GI50 in assay [1] was found to be 73.4 µM; in [2], 67.7 µM; in assay [3] it was 92.5 µM; in assay [4], 85.1 µM.

In the case of `CC#CCn1nnc2c(C(N)=O)ncn2c1=O`, the GI50 is 37.6 µM in assay [1], 39.6 µM in [2], 33 µM in assay [3] and 36.5 µM in [4].

Turning to `C[Si](C)(C)C#CCn1nnc2c(C(N)=O)ncn2c1=O`, the GI50 came to 39.5 µM in [1], 39.1 µM in assay [2], 30.7 µM in assay [3] and 30.3 µM in assay [4].

As to `NC(=O)Cn1nnc2c(C(N)=O)ncn2c1=O`, the GI50 in assay [1] worked out at 95.3 µM; in assay [2], 38 µM; in assay [3] it was 72.3 µM; in [4], 65.4 µM.

As to `N#CC/N=N/Nc1[nH]cnc1C(N)=O`, the GI50 in [1] is 271 µM; in assay [2], 111 µM; in [3], 242 µM; in assay [4], 106 µM.

As to `NC(=O)c1ncn2c(=O)n(C3CC3)nnc12`, the GI50 in [1] was over 500 µM; in [2], 428 µM; in assay [3], 360 µM; in [4], 306 µM.

Take `Cn1nnc2c(C(N)=O)ncn2c1=O` [TEMOZOLOMIDE]: the GI50 in assay [5] is over 500 µM; in [7] it was 289 µM; in [1], 526 µM; in assay [2], 45.6 µM; in assay [3], 395 µM; in assay [4], 72.9 µM. Moreover, the GI50 is over 500 µM in assay [10], 280 µM in [11] and over 100 µM in assay [12]. Besides, the RatioGI50 in [6] turned out to be 5; in [8], 11. In [9], the result was inactive.

Consider `CC(=O)OCn1nnc2c(C(N)=O)ncn2c1=O`, for which the GI50 was found to be 40.4 µM in assay [1], 48.3 µM in assay [2], 39.4 µM in assay [3] and 11.8 µM in assay [4].

Take `NC(=O)c1ncn2c(=O)n(CC(=O)O)nnc12`: the GI50 in [1] was determined as 296 µM; in assay [2], 265 µM; in assay [3], 140 µM; in assay [4], 69.5 µM.

Turning to `NC(=O)c1nc[nH]c1N/N=N/CC(F)F`, the GI50 in [1] turned out to be 70.3 µM; in [2], 68.8 µM; in assay [3], 248 µM; in [4] it was 205 µM.

With `C[S+]([O-])Cn1nnc2c(C(N)=O)ncn2c1=O` (stereo not drawn), the GI50 in assay [1] was 20.1 µM; in assay [2] it was 26.8 µM; in [3], 14.4 µM; in assay [4], 13.7 µM.

In the case of `NC(=O)c1ncn2c(=O)n(CO)nnc12`, the GI50 in assay [1] is 42.1 µM; in assay [2], 46.2 µM.

As for `C#CC/N=N/Nc1[nH]cnc1C(N)=O`, the Activity result in [13] was “Dose-dependent effect”. For the same compound, the fold change (FC) in [14] is over 2. In addition, the outcome in [15] and in assay [16] was Active. In addition, the GI50 in assay [1] was determined as 33.9 µM; in assay [2], 39.1 µM; in assay [3], 35.6 µM; in assay [4], 32 µM.

Regarding `NC(=O)c1ncn2c(=O)n(CCO)nnc12`, the GI50 in assay [1] came to 417 µM; in assay [2], 204 µM; in [3] it was 322 µM; in [4], 288 µM.

For the compound `NC(=O)c1ncn2c(=O)n(CC3CC3)nnc12`, the GI50 turned out to be 223 µM in assay [1], 286 µM in [2], 149 µM in [3] and 386 µM in assay [4].

`NC(=O)c1ncn2c(=O)n(CCCl)nnc12` [MITOZOLOMIDE]: the RatioGI50 in assay [6] is over 2; in assay [17], 10; in assay [18], over 3; in assay [8] it was over 2; in [19] it was 10; in assay [20] it was over 3. Further, the GI50 in [1] amounted to 68.4 µM; in [2], 10 µM; in assay [3] it was 40.3 µM; in assay [4], 22 µM.

In the case of `NC(=O)c1ncn2c(=O)n(COCc3ccccc3)nnc12`, the 50% growth inhibitory concentration (GI50) in [1] is 48.5 µM; in assay [2], 52.2 µM; in [3] it was 28.8 µM; in [4], 16.5 µM.

`NC(=O)c1ncn2c(=O)n(CCC(=O)O)nnc12`: the GI50 in assay [1], in [2], in assay [3] and in assay [4] was over 250 µM in each case.

Take `COC(=O)C/N=N/Nc1[nH]cnc1C(N)=O`: the GI50 in assay [1] is 49.7 µM; in assay [2], 47.7 µM; in [3], 46.4 µM; in assay [4], 32.6 µM.

For `CC(C)(C)C(=O)OCn1nnc2c(C(N)=O)ncn2c1=O`, the GI50 in assay [1] worked out at 28 µM; in [2], 45 µM; in [3], 28.9 µM; in assay [4], 13.2 µM.

Consider `CCOC(=O)Cn1nnc2c(C(N)=O)ncn2c1=O`, for which the GI50 in assay [1] amounted to 61.1 µM; in assay [2], 52.4 µM; in assay [3], 55.6 µM; in assay [4] it was 63.2 µM.

In the case of `CCOC(=O)C/N=N/Nc1[nH]cnc1C(N)=O`, the GI50 in [1] worked out at 37.4 µM; in assay [2], 33.6 µM; in [3] it was 23.4 µM; in assay [4], 30.3 µM.

With `C=CCn1nnc2c(C(N)=O)ncn2c1=O`, the GI50 is 239 µM in [1], 258 µM in [2], 199 µM in [3] and 141 µM in assay [4].

As for `COC(=O)Cn1nnc2c(C(N)=O)ncn2c1=O`, the GI50 was 49 µM in assay [1], 47.5 µM in [2], 46.4 µM in assay [3] and 32.1 µM in [4].

With `CNC(=O)Cn1nnc2c(C(N)=O)ncn2c1=O`, the GI50 in assay [1] is 246 µM; in assay [2], 65.8 µM; in [3], 263 µM; in assay [4], 260 µM.

For the compound `COCC/N=N/Nc1[nH]cnc1C(N)=O`, the GI50 in [1], in [2], in assay [3] and in assay [4] was over 500 µM each time.

Consider `NC(=O)c1nc[nH]c1N/N=N/CC1CC1`, for which the GI50 in [1], in assay [2], in assay [3] and in [4] was over 500 µM in each case.

On to `CS(=O)(=O)Cn1nnc2c(C(N)=O)ncn2c1=O`, for which the GI50 in [1] is 18.3 µM; in assay [2] it was 13.8 µM; in assay [3] it was 7.5 µM; in assay [4], 20.2 µM.

Turning to `CCOC(=O)C=[N+]=[N-]`, the GI50 in [1], in assay [2], in assay [3] and in assay [4] was over 800 µM throughout.

Turning to `NC(=O)c1ncn2c(=O)n(CCl)nnc12`, the GI50 turned out to be 31 µM in assay [1], 34.6 µM in assay [2], 24.4 µM in assay [3] and 29.3 µM in assay [4].

For `NC(=O)c1nc[nH]c1N/N=N/C1CC1`, the GI50 in assay [1], in assay [2], in assay [3] and in assay [4] was over 500 µM in each case.

With `CSCn1nnc2c(C(N)=O)ncn2c1=O`, the GI50 amounted to 151 µM in assay [1], 107 µM in assay [2], 56.5 µM in assay [3] and 59 µM in assay [4].

In the case of `NC(=O)CCn1nnc2c(C(N)=O)ncn2c1=O`, the GI50 in assay [1] came out at 398 µM; in [2], 321 µM; in [3] it was 355 µM; in assay [4], 138 µM.

As to `NC(=O)c1nc[nH]c1N/N=N/CC(F)(F)F`, the GI50 is 131 µM in [1], 68.8 µM in [2], 423 µM in assay [3] and 209 µM in [4].

In the case of `COCn1nnc2c(C(N)=O)ncn2c1=O`, the GI50 stood at 37.9 µM in assay [1], 30.8 µM in [2], 33.1 µM in assay [3] and 26 µM in assay [4].

`NC(=O)c1nc[nH]c1N/N=N/CCO`: the GI50 in assay [1] is over 500 µM; in assay [2], 441 µM; in assay [3] it was 336 µM; in [4] it was 383 µM.
